Measurements from patent publication US20060276464A1, “Diarylsulfone sulfonamides and use thereof” (Wyeth, priority 2005, published 2006).
Like-named read-outs stand apart in the source and are kept apart here.

Molecular target: T1, SFRP-1 (Homo sapiens, UniProt Q8N474)
T1 sequence (Q8N474 32-314): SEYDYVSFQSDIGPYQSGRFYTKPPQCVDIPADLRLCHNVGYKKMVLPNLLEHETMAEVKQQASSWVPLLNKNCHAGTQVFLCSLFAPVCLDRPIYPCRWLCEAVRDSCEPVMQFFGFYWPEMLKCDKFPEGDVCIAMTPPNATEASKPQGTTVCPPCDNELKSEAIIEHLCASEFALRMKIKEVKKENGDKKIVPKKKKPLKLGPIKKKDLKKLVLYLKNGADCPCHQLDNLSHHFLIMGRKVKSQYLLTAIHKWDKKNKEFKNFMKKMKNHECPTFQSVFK
Test: Cell-based assay for in vitro measurement of SFRP-1/SARP2 antagonist activity (U2OS cells co-transfected with 16x TCF-tk-Luciferase reporter, Wnt and hSFRP-1);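 note: U2OS cells co-transfected with a TCF-tk luciferase reporter, a Wnt vector, hSFRP-1 or empty vector and CMV-βgal, luciferase luminescence read in cell lysates alongside βgal activity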
Settings: for fold induction at 10 µM / fold induction at 15 µM / fold induction at 30 µM: U2OS; for fold induction at 10 µM: read-out: Fold Induction with SFRP-1, U2OS cells, single dose 10 μM, luciferase reporter, fold induction over SFRP-1 control

[1] = read-out: Fold Induction with SFRP-1, Conc 15 μM, single dose, luciferase reporter, fold induction over SFRP-1 control, cells with SFRP-1
[2] = read-out: Fold Induction without SFRP-1, Conc 15 μM, single dose, luciferase reporter, cells without SFRP-1 (specificity control)
[3] = read-out: Fold Induction with SFRP-1, Conc 30 μM, with SFRP-1, fold induction over SFRP-1 control, single dose
[4] = read-out: Fold Induction without SFRP-1, Conc 30 μM, without SFRP-1, single dose
[5] = read-out: Fold Induction with SFRP-1, Conc 15 μM, with SFRP-1, fold induction over SFRP-1 control, single dose
[6] = read-out: Fold Induction without SFRP-1, Conc 15 μM, without SFRP-1, single dose

SMILES | fold induction at 15 µM [5] | fold induction at 15 µM [6] | also measured
Cc1cc(S(=O)(=O)c2ccccc2)cc(S(=O)(=O)NC2CCNCC2)c1C [Example 922, 2,3-dimethyl-5-(phenylsulfonyl)-N-piperidin-4-ylbenzenesulfonamide] |  |  | fold induction at 10 µM: 1.1
CC(CO)NS(=O)(=O)c1cc(S(=O)(=O)c2ccccc2)ccc1Cl (stereo not drawn) [Example 674, 2-chloro-N-(2-hydroxy-1-methylethyl)-5-(phenylsulfonyl)benzenesulfonamide] |  |  | EC50: 24.1 µM; fold induction at 10 µM: 2
CC(C)(C)OC(=O)NC1CCN(S(=O)(=O)c2cc(S(=O)(=O)c3ccccc3)ccc2Cl)CC1 [Example 639, tert-butyl(1-{[2-chloro-5-(phenylsulfonyl)phenyl]sulfonyl}piperidin-4-yl)carbamate] |  |  | fold induction at 15 µM [1]: 0.9; fold induction at 15 µM [2]: 1
Cc1ccc(S(=O)(=O)c2ccccc2)cc1S(=O)(=O)NCCc1ccccc1 [Example 1, 2-Methyl-N-(2-phenylethyl)-5-(phenylsulfonyl)benzene sulfonamide] |  |  | fold induction at 30 µM [3]: 1.5; fold induction at 30 µM [4]: 0.6
CCN(CC)CCNS(=O)(=O)c1cc(S(=O)(=O)c2ccc(F)cc2)ccc1C [Example 171, N-[2-(diethylamino)ethyl]-5-[(4-fluorophenyl)sulfonyl]-2-methylbenzenesulfonamide] | 2.2 | 1.2 | 
CCc1ccc(S(=O)(=O)c2ccccc2)cc1S(=O)(=O)NCCc1cccc(OC)c1 [Example 143, 2-ethyl-N-[2-(3-methoxyphenyl)ethyl]-5-(phenylsulfonyl)benzenesulfonamide] | 3.3 | 0.7 | 
Cc1cc(S(=O)(=O)c2ccccc2)cc(S(=O)(=O)NCCc2ccccn2)c1C [Example 349, 2,3-dimethyl-5-(phenylsulfonyl)-N-(2-pyridin-2-ylethyl)benzenesulfonamide] | 2 | 1.2 | 
Cc1ccc(S(=O)(=O)c2ccc(Cl)cc2)cc1S(=O)(=O)NCCN1CCOCC1 [Example 290, 5-[(4-chlorophenyl)sulfonyl]-2-methyl-N-(2-morpholin-4-ylethyl)benzenesulfonamide] | 1.9 | 0.8 | 
Cc1ccc(S(=O)(=O)c2ccc(Cl)cc2)cc1S(=O)(=O)NCCCn1ccnc1 [Example 292, 5-[(4-chlorophenyl)sulfonyl]-N-[3-(1H-imidazol-1-yl)propyl]-2-methylbenzenesulfonamide] | 2.3 | 0.8 | 
Cc1ccc(S(=O)(=O)c2ccc(F)cc2)cc1S(=O)(=O)NC(C)C(O)c1ccccc1 (stereo not drawn) [Example 391, 5-[(4-fluorophenyl)sulfonyl]-N-[trans-2-hydroxy-1-methyl-2-phenylethyl]-2-methylbenzenesulfonamide] |  |  | Fold Induction with SFRP-1 (Conc 15 μM, with SFRP-1, fold induction over SFRP-1 control, single dose): 1.8 fold; Fold Induction without SFRP-1 (Conc 15 μM, without SFRP-1, single dose): 1.1 fold
CCc1ccc(S(=O)(=O)c2ccccc2)cc1S(=O)(=O)NCCc1ccccc1 [Example 141, 2-ethyl-N-(2-phenylethyl)-5-(phenylsulfonyl)benzenesulfonamide] | 3.3 | 1 | 
Cc1ccc(S(=O)(=O)c2ccccc2)cc1S(=O)(=O)NC1CCCCC1 [Example 400, N-cyclohexyl-2-methyl-5-(phenylsulfonyl)benzenesulfonamide] | 1.8 | 1.2 | 
O=S(=O)(NCCc1cccc(F)c1)c1cccc(S(=O)(=O)c2ccccc2)c1 [Example 81, N-[2-(3-fluorophenyl)ethyl]-3-(phenylsulfonyl)benzenesulfonamide] | 1 | 0.9 | 
CCc1ccc(S(=O)(=O)c2ccc(F)cc2)cc1S(=O)(=O)NCC1CCOCC1 [Example 384, 2-ethyl-5-[(4-fluorophenyl)sulfonyl]-N-(tetrahydro-2H-pyran-4-ylmethyl)benzenesulfonamide] | 2.6 | 0.8 | 
COCCCNS(=O)(=O)c1cc(S(=O)(=O)c2ccccc2)ccc1C [Example 215, N-(3-methoxypropyl)-2-methyl-5-(phenylsulfonyl)benzenesulfonamide] | 2.9 | 1 | 
Cc1ccc(S(=O)(=O)c2ccccc2)cc1S(=O)(=O)NCCc1cccc(F)c1 [Example 52, N-[2-(3-fluorophenyl)ethyl]-2-methyl-5-(phenylsulfonyl)benzenesulfonamide] |  |  | fold induction at 30 µM [3]: 1.4; fold induction at 30 µM [4]: 0.7

SMILES | fold induction at 15 µM [5] | fold induction at 15 µM [6] | also measured
CC(C)(O)Cc1ccc(S(=O)(=O)c2ccccc2)cc1S(=O)(=O)NCCc1ccccc1 [Example 341, 2-(2-hydroxy-2-methylpropyl)-N-(2-phenylethyl)-5-(phenylsulfonyl)benzenesulfonamide] | 1.5 | 1.1 | 
COc1ccc(S(=O)(=O)c2ccccc2)cc1S(=O)(=O)NCCc1ccccc1 [Example 150, 2-methoxy-N-(2-phenylethyl)-5-(phenylsulfonyl)benzenesulfonamide] | 1.5 | 1.2 | 
COc1ccc(CCNS(=O)(=O)c2cc(S(=O)(=O)c3ccc(C)cc3)ccc2C)cc1OC [Example 120, N-[2-(3,4-dimethoxyphenyl)ethyl]-2-methyl-5-[(4-methylphenyl)sulfonyl]benzenesulfonamide] |  |  | fold induction at 30 µM [3]: 1.2; fold induction at 30 µM [4]: 0.5
CC(C)c1ccc(S(=O)(=O)c2ccc(F)cc2)cc1S(=O)(=O)NC1CCN(C(=S)Nc2ccc(C(F)(F)F)cc2)CC1 [Example 730, 4-[({5-[(4-fluorophenyl)sulfonyl]-2-isopropylphenyl}sulfonyl)amino]-N-[4-(trifluoromethyl)phenyl]piperidine-1-carbothioamide] |  |  | fold induction at 10 µM: 2.2
Cc1ccc(S(=O)(=O)c2ccc(Cl)c(Cl)c2)cc1S(=O)(=O)NCCCn1ccnc1 [Example 340, 5-[(3,4-dichlorophenyl)sulfonyl]-N-[3-(1H-imidazol-1-yl)propyl]-2-methylbenzenesulfonamide] | 2.5 | 1 | 
O=S(=O)(NCCc1c[nH]cn1)c1cccc(S(=O)(=O)c2ccccc2)c1 [Example 189, N-[2-(1H-imidazol-4-yl)ethyl]-3-(phenylsulfonyl)benzenesulfonamide] |  |  | fold induction at 30 µM [3]: 1.3; fold induction at 30 µM [4]: 1
Cc1ccc(S(=O)(=O)c2ccc(N[C@@H]3C[C@H]4CC[C@@H]3C4)cc2)cc1S(=O)(=O)NCCCn1ccnc1 [Example 369, 5-({4-[(1R,2R,4S)-bicyclo[2.2.1]hept-2-ylamino]phenyl}sulfonyl)-N-[3-(1H-imidazol-1-yl)propyl]-2-methylbenzenesulfonamide] | 1.9 | 0.7 | 
CCN(CC)CCCNS(=O)(=O)c1cccc(S(=O)(=O)c2ccccc2)c1 [Example 198, N-[3-(diethylamino)propyl]-3-(phenylsulfonyl)benzenesulfonamide] |  |  | fold induction at 30 µM [3]: 1.1; fold induction at 30 µM [4]: 1.3
Cc1ccc(S(=O)(=O)c2ccc(F)cc2)cc1S(=O)(=O)NC1CCNCC1 [Example 576, 5-[(4-fluorophenyl)sulfonyl]-2-methyl-N-piperidin-4-ylbenzenesulfonamide] |  |  | fold induction at 15 µM [1]: 3; fold induction at 15 µM [2]: 1.2
C=CCN(CCc1ccc(OC)c(OC)c1)S(=O)(=O)c1cc(S(=O)(=O)c2ccccc2)ccc1C [Example 273, N-allyl-N-[2-(3,4-dimethoxyphenyl)ethyl]-2-methyl-5-(phenylsulfonyl)benzenesulfonamide] | 0.9 | 1 | 
COc1cccc(CCNS(=O)(=O)c2cccc(S(=O)(=O)c3ccccc3)c2)c1 [Example 62, N-[2-(3-methoxyphenyl)ethyl]-3-(phenylsulfonyl)benzenesulfonamide] | 1.2 | 1.1 | 
Cc1ccc(S(=O)(=O)c2ccc(NCCCOC(C)C)cc2)cc1S(=O)(=O)NCCCn1ccnc1 [Example 367, N-[3-(1H-imidazol-1-yl)propyl]-5-({4-[(3-isopropoxypropyl)amino]phenyl}sulfonyl)-2-methylbenzenesulfonamide] | 2.2 | 0.9 | 
Cc1ccc(S(=O)(=O)c2cc(Cl)ccc2Cl)cc1S(=O)(=O)NCCCn1ccnc1 [Example 345, 5-[(2,5-dichlorophenyl)sulfonyl]-N-[3-(1H-imidazol-1-yl)propyl]-2-methylbenzenesulfonamide] | 1.6 | 1 | 
Cc1ccc(S(=O)(=O)c2ccccc2)cc1S(=O)(=O)NCCc1ccc(S(N)(=O)=O)cc1 [Example 40, N-{2-[4-(aminosulfonyl)phenyl]ethyl}-2-methyl-5-(phenylsulfonyl)benzenesulfonamide] |  |  | fold induction at 30 µM [3]: 1.7; fold induction at 30 µM [4]: 0.9
Cc1ccc(S(=O)(=O)c2ccc(F)cc2)cc1S(=O)(=O)NCCC#N [Example 161, N-(2-cyanoethyl)-5-[(4-fluorophenyl)sulfonyl]-2-methylbenzenesulfonamide] | 2.7 | 1 | 
